This note sets out measurements from publication PMC9886266, “New [1,2,4]triazolo[4,3-c]quinazolines as intercalative Topo II inhibitors: Design, synthesis, biological evaluation, and in silico studies” (PLOS ONE, 2023).

The test system of one experiment is HepG2 cell line. In words: MTT anti-proliferative assay, HepG2. In kind it is cell-based. As to conditions: Homo sapiens, 48 h, three independent experiments, read-out: In vitro cytotoxicity IC50, HepG2. On the procedure: (§1) In vitro antiproliferative activities of the target molecules were assessed against two human cancer cell lines namely, hepatocellular carcinoma (HepG2) and colorectal carcinoma (HCT-116) using MTT assay.
(§2) The anti-proliferative activity of the synthesized compounds was assessed using MTT assay protocol. A panel of human cancer cell lines namely, colorectal carcinoma (HCT-116) and hepatocellular carcinoma (HepG2) was used in this test. Doxorubicin was used as a positive control. The cell lines were got from ATCC (American Type Culture Collection) via the Holding company for biological products and vaccines (VACSERA, Cairo, Egypt). The anti-proliferative activities of the tested compounds were determined quantitatively as follows:
(§3) At first, the cells were cultured into a medium of RPMI-1640 with 10% fetal bovine serum. Then, two different antibiotics were added at 37°C in a 5% CO2 incubator: penicillin (100 units/mL) and streptomycin (100 μg/mL). Next, we seeded the cells in a 96-well plate by a density of 1.0 x 10^4 cells / well at 37°C for 48 h under 5% CO2. The synthesized compounds with different concentrations were applied into the cell lines and incubated for 48 h. After 48 h, 20 μl of MTT solution (5mg/mL) was added and incubated for 4 h. Then, DMSO (100 μl) was added into each well to dissolve the formed purple formazan. After that, a colorimetric assay was measured and recorded at absorbance of 570 nm using a plate reader (EXL 800, USA). The relative cell viability in percentage was calculated as (A570 of treated samples/A570 of untreated sample) X 100.
(§4) S2: Biological evaluation
(§5) S2.1. In vitro cytotoxic activity
(§6) The anti-proliferative activity of the synthesized compounds was assessed using MTT assay protocol. A panel of human cancer cell lines namely, colorectal carcinoma (HCT-116) and hepatocellular carcinoma (HepG2) was used in this test. As we targeted the DNA and Topo […]
(§7) cell lines were got from ATCC (American Type Culture Collection) via the Holding company for biological products and vaccines (VACSERA, Cairo, Egypt). The anti -proliferative activities of the tested compounds were determined quantitatively as follows:
(§8) At first, the cells were cultured into a medium of RPMI-1640 with 10% fetal bovine serum.
(§9) Then, two different antibiotics were added at 37 ᵒC in a 5% CO2 incubator: penicillin (100 units/mL) and streptomycin (100 µg/mL). Next, we seeded the cells in a 96 -well plate by a density of 1.0 x 10^4 cells / well at 37 ᵒC for 48 h under 5% CO2. The synthesized compounds with different concentrations were applied into the cell lines and incubated for 48 h. After 48 h, 20 µl of MTT solution (5mg/mL) was added and incubated for 4 h. Then, DMSO (100 µl) was added into each well to dissolve the formed purple formazan. After that, a colorimetric assay was measured and recorded at absorbance of 570 nm using a plate reader (EXL 800, USA). The relative cell viability in percentage was calculated as (A570 of treated samples/A570 of untreated sample) X 100. […]

The subject of a further experiment is HCT-116 cell line. As to the kind of experiment: MTT anti-proliferative assay, HCT-116. In kind it is cell-based. As to conditions: Homo sapiens, 48 h, three independent experiments, read-out: In vitro cytotoxicity IC50, HCT-116. On the procedure: as §1, §2, §3, §4, §5, §6, §7, §8, §9
Experiment [1] has as its system Activated Calf Thymus DNA. In words: DNA/methyl green assay (DNA intercalation). It is filed as binding. On the procedure: The most promising members (13a, 14a, 16, 17, 18, 19, and 20) were further investigated for their binding affinity against DNA. […] The results of DNA-binding affinities were reported in Table 1 as IC50 values calculated from the concentration-inhibition response curve.
Activated Calf Thymus DNA (Merk, Germany) was treated with methyl green (Merk, Germany), then the synthesized compounds were applied to displace the methyl green dye, producing equivalent color.
After that, the DNA was run on 1% agarose gel in BioRad gel electrophoresis system for 1–2 h followed by staining with GelRedTM stain for 2 h and destained for 15 min with TAE buffer. The gel was imaged via BioRad’s Gel DocTMEZ system. Both supercoiled and linear strands DNA were incorporated in the gel as markers for DNA-Topo II intercalators. The results of IC50 values were calculated using the GraphPad Prism version 7. Each reaction was performed in duplicate, and at least three independent determinations of each IC50 were made.
S2.3. DNA/Methyl Green Assay […]
methyl green dye method described by Burres et al. Activated Calf Thymus DNA (Merk, Germany) was treated with methyl green (Merk, Germany), then the synthesized compounds were applied to displace the methyl green dye, producing equivalent color. […]

Like-named read-outs stand apart in the source and are kept apart here.

Consider `CCCNc1nc2ccccc2c2nnc(-c3ccc(C)cc3)n12` [Compound 11a, N-Propyl-3-(p-tolyl)-[1,2,4]triazolo[4,3-c]quinazolin-5-amine], for which the IC50 in the experiment with HepG2 cell line was found to be 15.5 ± 1 µM; in the experiment on HCT-116 cell line, 8.42 ± 0.3 µM.
The corresponding values for `CCCNc1nc2ccccc2c2nnc(-c3ccc(Cl)cc3)n12` [Compound 11b, 3-(4-Chlorophenyl)-N-propyl-[1,2,4]triazolo[4,3-c]quinazolin-5-amine] are 29.9 ± 1.3 µM and 25 ± 0.9 µM.
On the same counts, the results for `Cc1ccc(-c2nnc3c4ccccc4nc(NCCO)n23)cc1` [Compound 12a, 2-((3-(p-Tolyl)-[1,2,4]triazolo[4,3-c]quinazolin-5-yl)amino)ethan-1-ol] are 18.8 ± 1.2 µM and 11.9 ± 0.3 µM.
Take `OCCNc1nc2ccccc2c2nnc(-c3ccc(Cl)cc3)n12` [Compound 12b, 2-((3-(4-Chlorophenyl)-[1,2,4]triazolo[4,3-c]quinazolin-5-yl)amino)ethan-1-ol]: the results for the IC50 in the experiment on HepG2 cell line and in the experiment with HCT-116 cell line were 17.8 ± 0.9 µM and 7.03 ± 0.2 µM, respectively.
As for `CN(C)c1nc2ccccc2c2nnc(-c3ccc(Cl)cc3)n12` [Compound 13b, 3-(4-Chlorophenyl)-N,N-dimethyl-[1,2,4]triazolo[4,3-c]quinazolin-5-amine], the IC50 worked out at 33.1 ± 1.7 µM in the experiment with HepG2 cell line and 16.9 ± 0.9 µM with HCT-116 cell line.
The corresponding values for `Clc1ccc(-c2nnc3c4ccccc4nc(NC4CCCCC4)n23)cc1` [Compound 14b, 3-(4-Chlorophenyl)-N-cyclohexyl-[1,2,4]triazolo[4,3-c]quinazolin-5-amine] are 29.5 ± 1.2 µM and 17.4 ± 0.4 µM.
On the same counts, the results for `Cc1ccc(-c2nnc3c4ccccc4nc(N4CCOCC4)n23)cc1` [Compound 15a, 4-(3-(p-Tolyl)-[1,2,4]triazolo[4,3-c]quinazolin-5-yl)morpholine] are 20.4 ± 0.9 µM and 20 ± 0.4 µM.
The corresponding values for `Clc1ccc(-c2nnc3c4ccccc4nc(N4CCOCC4)n23)cc1` [Compound 15b, 4-(3-(4-Chlorophenyl)-[1,2,4]triazolo[4,3-c]quinazolin-5-yl)morpholine] are 23.4 ± 0.9 µM and 21 ± 0.3 µM.
In the case of `COc1cccc2c1C(=O)c1c(O)c3c(c(O)c1C2=O)C[C@@](O)(C(=O)CO)C[C@@H]3O[C@H]1C[C@H](N)[C@H](O)[C@H](C)O1` [Doxorubicin, reference compound], the IC50 was determined as 3.8 ± 0.1 µM in the experiment with HepG2 cell line; 1.87 ± 0.1 µM with HCT-116 cell line; 5.64 ± 0.1 µM in experiment [1] (50% inhibition concentration of DNA/methyl green assay, read-out: DNA/Methyl green (IC50)); 5.64 µM in experiment [1] (supplement curve fit, read-out: IC50 (best-fit value, DNA/Topo-II Inhibition (%) curve)). Moreover, in experiment [1] (supplement curve fit), the “HillSlope (best-fit value, DNA/Topo-II Inhibition (%) curve)” value is listed as 0.3659.
